Where a name gives a salt, the structure may show the parent alone. Each block holds one compound with its values, some of them ahead of it.
Legend:
[1] = test system: C. freundii AmpC, TEM-1, CMY65; experiment: MIC, CLSI broth microdilution, beta-lactam with or without BLI; format: cell-based; settings: for MIC of beta-lactam alone / MIC: no BLI; for MIC: Citrobacter freundii, read-out: MIC of beta-lactam alone
Experimental: (§1) The minimal inhibitory concentration (MIC) values against each organism and drug combination were determined using the Clinical and Laboratory Standards Institute guidelines (CLSI) broth microdilution methodology (CLSI M07-A10). The recommended quality control (QC) bacterial strains E. coli ATCC 25922, E. coli ATCC 35218 and Klebsiella pneumoniae ATCC 700603 were incorporated into each test according to the CLSI guidelines to assure that there was no variation between test dates (CLSI M100-S25). The MICs of these QC strains were within QC range on all test occasions. Drug containing plates were made using the master plate method. A cefpodoxime solution was prepared to 20× concentration and 2-fold serial dilutions were made in cation adjusted Mueller-Hinton Broth. Equal volumes of 20× examplar compounds at a fixed concentration were added to the master plate. 10 uL was stamped into daughter plates using a Tecan EVO robot. Organism suspensions were adjusted to a 0.5 McFarland standard and further diluted to yield a final inoculum between 3×10^5 and 7×10^5 colony-forming units (CFU)/mL. Bacterial inocula were made in sterile, cation adjusted Mueller-Hinton Broth (Beckton Dickinson). An inoculum volume of 1.1× concentration of 90 uL was added to wells (using a Tecan EVO robot). All inoculated microdilution plates were incubated in ambient air at 35° C. for 18-24 hours.
(§2) Following the procedure from Example 103, MICs were determined for several beta-lactams in presence of a fixed concentration (4 μg/mL) of exemplar compounds (Table 3) against 3 Enterobacteriaceae strains.

[2] = test system: E. coli WT (ATCC 25922); experiment: as above; format: cell-based; settings: for MIC of beta-lactam alone: no BLI; for MIC: Escherichia coli, ATCC25922, no BLI, read-out: MIC of beta-lactam alone
Experimental: as §1, §2

[3] = test system: Klebsiella pneumoniae SHV-18, OXA-2, OKP-6 (ATCC 700603); experiment: as above; format: cell-based; settings: for MIC of beta-lactam alone / MIC: no BLI; for MIC of beta-lactam alone / MIC of cefpodoxime in presence of BLI / MIC: K. pneumoniae SHV-18, OXA-2, OKP-6 (ATCC 700603); for MIC of cefpodoxime in presence of BLI: BLI at fixed 4 μg/mL; for MIC: Klebsiella pneumoniae, ATCC700603, read-out: MIC of beta-lactam alone
Experimental: as §1, §2

[4] = test system: E. coli ARC2687 (AmpC, CTX-M-14); experiment: Mouse neutropenic thigh infection model, oral efficacy of cefpodoxime proxetil with Example 35; format: in vivo
Experimental: The oral in vivo efficacy of Example 35 was evaluated in combination with cefpodoxime proxetil in a mouse neutropenic thigh infection model versus a relevant clinical isolate. […] CD-1 mice (Charles River, Wilmington US) were housed in shoebox type cages with contact bedding and acclimated to the facility for a minimum of 2 days prior to use. The animal room was maintained at 70° F., with 50+/−10% relative humidity and a 12-hour light/dark cycle. The study was conducted using an IACUC-approved protocol in accordance with Title 9 of the Code of Federal Regulations. Animals were rendered neutropenic with two intraperitoneal doses of cyclophosphamide (150 mg/kg—4 days and 100 mg/kg—1 day prior to infection (Gerber et al. (1983) J Infect Dis 147(5); 910-917)). Animals were infected via an intramuscular challenge of ˜1×10^6 CFU administered within 100 μL of 0.9% saline. The inoculum was prepared from a 25 mL overnight culture of E. coli ARC 2687 in tryptic soy broth media. Following an OD600 determination, the inoculum was diluted in 0.9% saline to a concentration of […] prior to inoculation into the left and right thigh. Oral therapy with cefpodoxime proxetil alone and in combination with Example 35 was initiated 2 hours post bacterial challenge. Doses were suspended in 0.5% HPMC/0.1% Tween 80 and administered by oral gavage at a dose volume of 10 mL/kg. A terminal endpoint was obtained at 24 hr to determine bacterial counts in thigh tissue (CFU/gm). Animals were ethically euthanized, thighs were asceptically removed, weighed and homogenized in 1 mL of saline. Bacterial burden enumeration of tissue homogenate was performed by serial dilution on tryptic soy agar plates which were incubated overnight at 37° C. prior to colony (CFU) counting. The lower limit of detection was ˜2.6 log10 CFU/gm of tissue.

[5] = Rat PK, intravenous and oral; format: in vivo, Sprague-Dawley rats; settings: Sprague-Dawley, plasma, 10 mg/kg; rat, PO; analyte = compound administered (sulfate-derived comparator)
Experimental: Intravenous rat pharmacokinetics of exemplar compounds were determined in jugular vein cannulated Sprague-Dawley rats (n=3) (Harlan Laboratories, Indianapolis, Ind.) at a dose of 10 mg/kg. Compounds were dissolved and administered intravenously in 0.9% saline, pH 6.5 at a dose volume of 2 mL/kg. […] Oral pharmacokinetic studies were conducted with exemplar compounds at 10 mg/kg equivalents of carboxylic acids. Doses were dissolved and administered orally in 25:75 PEG400: water for injection, pH 4.5 at a dose volume of 10 mL/kg. […] Plasma samples were stored at −80° C. prior to bioanalysis.
Plasma samples were thawed on ice prior to processing. Samples (30 μL) were diluted and proteins precipitated with 180 μL of acetonitrile containing 0.1% formic acid and 250 ng/mL of carbutamide (N1-(butylcarbanoyl)-sulfanilamide, Sigma-Aldrich Catalog # S385433) as an internal standard. Samples were vortexed for 30 seconds, centrifuged at 3400 g for 10 minutes and the supernatant transferred to injection vials.
LC/MS/MS analysis was completed on an AB Sciex QTrap 6500 mass spectrometer in positive ionization mode, coupled to a Schimadzu Nexera LC system. A Waters Atlantis T3 (3 μm, 3.0×50 mm) column was used for chromatographic separation. Injection volume was […] The mobile phase consisted 0.1% formic acid in water (A) and 0.1% formic acid in acetonitrile (B), with a gradient of 2-98% B:A over two minutes.
Plasma concentration vs. time profiles following intravenous (IV) administration and oral (PO) administration of exemplar compounds were analyzed by non-compartment analysis using WinNonLin 6.4.

[6] = biological target: TEM-1 (Class A beta-lactamase) (Escherichia coli, UniProt P62593); experiment: Inhibition of beta-lactamase enzymes (nitrocefin hydrolysis), TEM-1; format: biochemical; settings: read-out: Class A TEM-1 60 min IC50, nitrocefin 100 μM
TEM-1 (Class A beta-lactamase), sequence (P62593 whole entry, looked up, species assumed): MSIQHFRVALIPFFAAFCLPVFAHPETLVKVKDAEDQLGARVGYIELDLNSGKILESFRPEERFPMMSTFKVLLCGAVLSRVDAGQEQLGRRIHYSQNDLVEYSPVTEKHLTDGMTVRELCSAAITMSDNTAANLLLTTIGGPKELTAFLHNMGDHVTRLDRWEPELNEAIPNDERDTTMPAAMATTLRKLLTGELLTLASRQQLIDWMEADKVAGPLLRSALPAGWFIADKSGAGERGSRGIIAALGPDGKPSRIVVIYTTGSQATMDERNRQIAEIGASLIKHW
Experimental: (§3) A buffer consisting of 0.1 M sodium phosphate (pH 7.0), 10 mM NaHCO3, and 0.005% Triton X-100 was used for all enzymes. The chromogenic substrate nitrocefin (SynGene, Bangalore, India) was used at 100 μM. Enzyme activity was monitored by the 490 nm absorbance increase upon nitrocefin hydrolysis. Assays were performed in clear polystyrene 384-well plates (Greiner Bio-One, Monroe, N.C.). Absorbance was measured for 1 hour at 30-s intervals using a Spectramax absorbance plate reader (Molecular Devices, Sunnyvale, Calif.). Measurement of beta-lactamase inhibition by INHIBITOR employed serial 3-fold dilutions of the inhibitor in assay buffer, ranging from 100 μM to 62.7 pM. A background absorbance progress curve for a control lacking enzyme and inhibitor was subtracted from each progress curve.
(§4) The complete set of progress curves for one enzyme with all inhibitor concentrations was subjected to numerical integration with the program Kintek Global Kinetic Explorer (Kintek Corp, Snowshoe Pa.) to obtain a best-fit to the mechanism shown in Scheme 10.
(§5) where E, S, ES, P, I, and EI are the concentrations of the enzyme, nitrocefin, the enzyme-nitrocefin complex, the nitrocefin hydrolysis product, INHIBITOR, and the enzyme-INHIBITOR complex respectively. […] The values of k+2, k+3, and k−3 were fit. Concentration series offsets of the absorbance measurements were used to correct for slight absorbance baseline differences between wells. The parameter k+3 is equivalent to the second order rate constant kinact/Ki. In some cases, the inhibition was in rapid equilibrium on the experimental time scale, so that only the ratio k−3/k+3=Ki could be determined. Although k−3 represents reversal of inhibitor binding in Scheme 10, hydrolysis of the enzyme-inhibitor complex could not be excluded based on kinetic measurements.
(§6) Best-fit absorbance values from the above procedure at each time point for each compound concentration were exported to Excel.
(§7) where A is the best-fit absorbance without inhibitor and Ainhib is the best-fit absorbance in the presence of the inhibitor.
(§8) where [I] is the inhibitor concentration and n is the Hill coefficient. The Excel add-in XLfit (ID Business Solutions) was used for nonlinear regression.

[7] = biological target: OXA-48 (Class D beta-lactamase) (Klebsiella pneumoniae, UniProt Q6XEC0); experiment: Inhibition of beta-lactamase enzymes (nitrocefin hydrolysis), OXA-48; format: biochemical; settings: read-out: Class D OXA-48 60 min IC50, nitrocefin 100 μM
OXA-48 (Class D beta-lactamase), sequence (Q6XEC0 whole entry, looked up, species assumed): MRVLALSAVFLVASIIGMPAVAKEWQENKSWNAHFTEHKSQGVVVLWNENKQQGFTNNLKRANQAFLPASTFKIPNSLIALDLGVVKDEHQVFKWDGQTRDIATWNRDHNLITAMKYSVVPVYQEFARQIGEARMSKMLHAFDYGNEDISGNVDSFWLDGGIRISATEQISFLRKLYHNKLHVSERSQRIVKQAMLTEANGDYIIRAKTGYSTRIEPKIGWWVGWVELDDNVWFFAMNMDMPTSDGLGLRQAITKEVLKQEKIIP
Experimental: as §3, §4, §5, §6, §7, §8

[8] = BLI at fixed 4 μg/ml, K. pneumoniae ATCC 700603

- MIC of beta-lactam alone [1]: >64 mg/L
- MIC of beta-lactam alone [2]: 0.5 mg/L
- MIC of beta-lactam alone [3]: 8 mg/L
Structure (SMILES): C=CC1=C(C(=O)O)N2C(=O)[C@@H](NC(=O)/C(=N\OCC(=O)O)c3csc(N)n3)[C@H]2SC1 [Cefixime, cefixime, reference compound]

Structure (SMILES): COCC1=C(C(=O)OC(C)OC(=O)OC(C)C)N2C(=O)[C@@H](NC(=O)/C(=N\OC)c3csc(N)n3)[C@H]2SC1 (stereo partly shown) [Cefpodoxime proxetil, cefpodoxime proxetil, reference compound]
- log10CFU/gm thigh ([4]; cefpodoxime proxetil alone 50 mg/kg PO/q6h, mouse neutropenic thigh, E. coli ARC2687): 10.24 log10CFU/gm thigh
- CFU Change from 26 hr ([4]; cefpodoxime proxetil alone 50 mg/kg PO/q6h, relative to 26 hr growth control): −0.62 log10 CFU/gm
- CFU Change from 2 hr ([4]; cefpodoxime proxetil alone 50 mg/kg PO/q6h, relative to initiation of therapy): +3.97 log10 CFU/gm
- growth of bacterial burden in thighs after 24 hours of therapy ([4]; cefpodoxime proxetil alone at 50 mg/kg q6h, oral, neutropenic CD-1 mice): greater than 3 log10 CFU/gm

- MIC of beta-lactam alone [1]: >64 mg/L
- MIC of beta-lactam alone [2]: 4 mg/L
- MIC of beta-lactam alone [3]: 32 mg/L
Structure (SMILES): CO/N=C(\C(=O)N[C@@H]1C(=O)N2C(C(=O)O)=C(COC(N)=O)CS[C@H]12)c1ccco1 [Cefuroxime, cefuroxime, reference compound]

- AUC [5]: 440 nM·h
Structure (SMILES): CC1=C[C@@H]2CN(C(=O)N2OS(=O)(=O)O)[C@@H]1C(N)=O [ETX2514, reference compound]

Structure (SMILES): CC1=C[C@@H]2CN(C(=O)N2O[C@@H](F)C(=O)O)[C@@H]1C(=O)NCCNS(N)(=O)=O [Example 75, (2S)-2-fluoro-2-[[(2S,5R)-3-methyl-7-oxo-2-[2-(sulfamoylamino)ethyl-carbamoyl]-1,6-diazabicyclo[3.2.1]oct-3-en-6-yl]oxy]acetic acid lithium salt]
- IC50 [6]: 0.083 µM
- IC50 [7]: 0.42 µM
- MIC of cefpodoxime in presence of BLI [3]: 0.125 mg/L

Structure (SMILES): CC1=C[C@@H](C(N)=O)N2C[C@@H]1N(OCC(=O)O)C2=O [Example 93, 2-(((2S,5R)-2-carbamoyl-4-methyl-7-oxo-1,6-diazabicyclo[3.2.1]oct-3-en-6-yl)oxy)acetic acid lithium salt]
- IC50 [6]: 0.15 µM
- IC50 [7]: 0.053 µM
- MIC of cefixime in presence of BLI ([1]; BLI at fixed 4 μg/ml): ≤0.06 mg/L
- MIC of faropenem in presence of BLI ([1]; BLI at fixed 4 μg/ml): ≤0.06 mg/L
- MIC of tebipenem in presence of BLI ([1]; BLI at fixed 4 μg/ml): ≤0.06 mg/L
- MIC of cefixime in presence of BLI ([2]; BLI at fixed 4 μg/ml): ≤0.06 mg/L
- MIC of faropenem in presence of BLI ([2]; BLI at fixed 4 μg/ml): ≤0.06 mg/L
- MIC of tebipenem in presence of BLI ([2]; BLI at fixed 4 μg/ml): ≤0.06 mg/L
- MIC of cefpodoxime in presence of BLI ([3]; lithium salt): 0.125 mg/L
- MIC of cefixime in presence of BLI [3, 8]: 0.125 mg/L
- MIC of faropenem in presence of BLI [3, 8]: 1 mg/L
- MIC of tebipenem in presence of BLI [3, 8]: ≤0.06 mg/L

- MIC [1]: 8 mg/L
- MIC [2]: 0.5 mg/L
- MIC [3]: 8 mg/L
Structure (SMILES): C[C@@H](O)[C@H]1C(=O)N2C(C(=O)O)=C([C@H]3CCCO3)S[C@H]12 [Faropenem, faropenem, reference compound]

- MIC of beta-lactam alone [1]: >64 mg/L
- MIC of beta-lactam alone [2]: 2 mg/L
- MIC of beta-lactam alone [3]: 32 mg/L
Structure (SMILES): N[C@@H](C(=O)N[C@@H]1C(=O)N2C(C(=O)O)=C(Cl)CC[C@H]12)c1ccccc1 [Loracarbef, loracarbef, reference compound]

- AUC [5]: 290 nM·h
Structure (SMILES): O=C(NC1CCNCC1)[C@@H]1CC[C@@H]2CN1C(=O)N2OS(=O)(=O)O [Relebactam, reference compound]

- MIC [1]: 0.125 mg/L
- MIC [2]: ≤ 0.06 mg/L
- MIC [3]: 0.125 mg/L
Structure (SMILES): C[C@@H](O)[C@H]1C(=O)N2C(C(=O)O)=C(SC3CN(C4=NCCS4)C3)[C@H](C)[C@H]12 [Tebipenem, tebipenem, reference compound]

- MIC of beta-lactam alone [1]: 4 mg/L
- MIC of beta-lactam alone [2]: 1 mg/L
- MIC of beta-lactam alone [3]: 32 mg/L
Structure (SMILES): CC1(C)[C@H](NC(=O)/C(=N\OCC(=O)O)c2csc(N)n2)C(=O)N1OS(=O)(=O)O [Tigemonam, tigemonam, reference compound]

- AUC [5]: 450 nM·h
Structure (SMILES): N#CC1CC[C@@H]2CN1C(=O)N2OS(=O)(=O)O (stereo partly shown) [WCK 4234, reference compound]

Reference: patent US10800778B2 (Entasis Therapeutics Limited, priority 2016, dated 2020)
